Measured values reported in patent publication US9670217B2, “Process for preparing chlorins and their pharmaceutical uses” (UNIVERSIDADE DE COIMBRA, priority 2008, dated 2017).
Like-named read-outs stand apart in the source and are kept apart here.

Assays:
[1] = in toluene [12]; cited from earlier work
[2] = cited from earlier work
[3] = Fluorescence quantum yield; assay type: physicochemical; conditions: ethanol
Protocol: The absorptions of both reference and sample solutions were matched at ca 0.2 at the excitation wavelength of 515.5 nm, and the solutions were diluted by a factor 10 before collecting the fluorescence. The fluorescence quantum yield was obtained from the ratio of the fluorescence bands of the sample vs the reference, multiplied by the fluorescence quantum yield of the reference, 0.012 according to [12], after correction for the difference of refractive indexes of ethanol and toluene.
(§1) This is indicative of little aggregation between the molecules, which exist mostly as monomers at these concentrations in the solvents studied. Table 1 presents typical red and infrared molar absorption coefficients (εmax) and wavelength maxima. The same table also presents representative fluorescence quantum yields (ΦF) of Luzitins. The fluorescence quantum yields decrease of these molecules decrease in the presence of chlorine substituents, a fingerprint of the heavy atom effect expected for such molecules.

[4] = Singlet oxygen quantum yield and lifetime (1270 nm phosphorescence); assay type: physicochemical; conditions: air-saturated ethanol
Protocol: (§2) Absorption spectra were recorded on a Shimadzu UV-2100 spectrophotometer or with a Carry 50 Biospectrophotometer (Varian, Mulgrave, USA). Fluorescence spectra were measured with a Spex Fluorolog 3 spectrophotometer, with correction for the wavelength dependence system (RCA C31034 photomultiplier), or with a PerkinElmer LS 50 spectrofluorimeter. Transient absorption spectra were measured with an Applied Photophysics LKS 60 nanosecond laser flash photolysis kinetic spectrometer, using the third harmonic of a Spectra-Physics Quanta Ray GCR 130-01 Nd/YAG laser for excitation, a Hamamatsu 1P28 photomultiplier and a Hewlett-Packard Infinium oscilloscope (1 GS/s). Flash photolysis measurements were made in the presence of air and in argon saturated solutions. Photoacoustic calorimetry employed the same Nd/YAG laser, a home-made front-face photoacoustic cell with a 2.25 MHz Panametrics transducer (model 5676) and a Tektronix DSA 601 transient recorder. Room-temperature singlet-oxygen phosphorescence was measured at 1270 nm with a Hamamatsu R5509-42 photomultiplier, cooled to 193 K in a liquid nitrogen chamber (Products for Research model PC176TSCE005), following laser excitation of aerated solutions at 355 nm, using an adapted Applied Photophysics spectrometer. Singlet oxygen emission at 1270 nm was also monitored with a liquid nitrogen-cooled germanium detector (North Coast) coupled to a Tectronix Digitizing scope (TDS 520B), following sample excitation with 5 ns laser pulses of the third harmonic (355 nm) generated by a Q-switched Nd:YAG laser (Continuum Surelite II).
Singlet oxygen quantum yields in ethanol were obtained using a procedure described by some of us, using phenalenone as reference. The literature value for the singlet oxygen quantum yield obtained with phenalenone in ethanol is ΦΔ=0.95 [38].
All the singlet oxygen emissions measured in aerated ethanol solutions are very well described by mono-exponential decays, with typical singlet oxygen lifetimes (τΔ). The ΦΔ values of Table 1 were obtained by the procedures described above and are representative of these photosensitisers.
An air-saturated solution of Luzitin-Cl2Hep in ethanol with an absorbance ca. 0.2 at 355 nm was excited in a 1 cm quartz cuvette by a pulsed Nd:YAG laser, and the singlet oxygen emission was followed at 1270 nm, using the equipment and methods previously described. The intensity of the singlet oxygen phosphorescence was studied as a function of the laser intensity. A similar study was made with phenalenone in ethanol, at a concentration matching the absorbance of Luzitin-Cl2Hep at 355 nm. […] Various laser energies were employed and from the slopes of the energy dependence of singlet oxygen emission and the value of ΦΔ=0.95 for phenalenone in this ethanol, we obtained ΦΔ=0.78 for Luzitin-Cl2Hep.

[5] = Absorption spectra (λmax, molar absorption coefficient); assay type: physicochemical; conditions: ethanol solutions
Protocol: as §2, §1

[6] = n-octanol:water partition coefficient (shake-flask); assay type: physicochemical
Protocol: The n-octanol:water partition coefficients (CP) were measured using a minor modification of the shake-flask method described by some of us in the literature. The modification concerned the excitation of the absorption band ca 500 nm and the collection of the fluorescence in the red/IR region.

[7] = Photobleaching under 748 nm diode laser irradiation; assay type: physicochemical; conditions: 100 mW laser irradiation at 748 nm
Excerpt: The irradiation of bacteriochlorins in the photobleaching experiments employed the 748 nm Lynx diode laser. For animal studies we employed a costumer-made Hamamatsu diode laser, type LA0873. S/N M070301, which delivered 140 mW at 748 nm. This diode laser was controlled by a ThorLabs 500 mA ACC/APC Laser Diode Controller and in-house electronics. The laser energies of this and the other higher-energy lasers employed in this work were regularly checked with an Ophir model AN/2E laser power meter.
Photobleaching experiments were conducted in PBS. PBS:methanol (50:50) and methanol solutions. The solutions were irradiated in a cuvette with an optical path of 1 cm and the Lynx diode laser. The initial absorption of the solutions was ca. 0.8. The mechanism of photobleaching was assessed with the irradiation of the sensitizer using the Hamamatsu diode laser at 80 mW. The sensitizer was irradiated in PBS and in the presence of ascorbic acid or azide.
The chemical stability of the compounds was studied exposing them to light, air, and pH changes. The most significant degradation occurs for aerated solutions irradiated by light of the appropriate wavelength. In such circumstances the photobleaching of the compounds follows a first-order rate and is proportional to the energy of the incident laser light. In general, it was also observed that the photobleaching rate increases with the amount of water present in the solution. Bennett reported the photoconversion of Foscan® (m-THPC) and of the analogous bacteriochlorin (m-THPB) in PBS:methanol (50:50). Scherz reported the photoconversion of Tookad® in acetone and Triton-X:PBS [3]. For the purpose of comparing the photostability of Luzitins with that of Foscan® and Tookad®, we present in Table 2 the half-lives (t1/2) of representative drugs described herein, together with those of Foscan and Tookad® normalized for a laser power of 100 mW.
Luzitin-FMet was dissolved in PBS:methanol (2:3), transferred to a 1 cm quartz cell and its absorption spectrum was registered, FIG. 6. The quartz cell was then placed in the beam of the 748 nm Lynx diode laser, previously unfocused to have a beam diameter coincident with the window of the quartz cell. The laser power measured under these conditions was 28.8 mW. Every 5 minutes the irradiation was interrupted and a new absorption spectrum was registered. This procedure was followed for 65 minutes. The photobleaching follows the kinetics of a first-order reaction in the time window of the experiment. […] Whereas the bacteriochlorin peak at 743 nm is reduced from an absorbance of 1.128 to 0.337, the absorption of the chlorin only increases from 0.114 to 0.151. Taking into consideration the molar absorption coefficients of the compounds at these wavelengths, it is clear that whereas 70% of the bacteriochlorin is destroyed during the irradiation, only a few percent of chlorin are formed.
The half-lives of other bacteriochlorins normalized 100 mW laser irradiation at 748 nm are presented in […], together with the literature data for the photodegradation of Foscan® and Tookad® normalized for the same light intensity. It was also observed that the half-live to Luzitin-Cl is increased by a factor of 30 when the PBS solution of the photosensitizer is saturated with Argon, which reduces the oxygen concentration in the solution.

[8] = Triplet lifetime by laser flash photolysis; assay type: physicochemical; conditions: air-saturated ethanol
Protocol: as §2
The triplet-triplet absorption spectra and the triplet lifetimes of the photosensitisers (τT) were measured with the transient absorption spectra equipment described above, with excitation at 355 nm, where the solutions had absorbances between 0.25 and 0.30.
The triplet-triplet absorption spectra of the Luzitins measured in this work were in good agreement with that in the literature data for chlorins and bacteriochlorins. All triplet decays were clearly mono-exponential. […] Such values are consistent with diffusion limited energy transfer from the triplet state of the sensitizer to molecular oxygen through a charge-transfer interaction.

[9] = system: human adenocarcinoma (HT29) cell line; conditions: HT29, irradiation of 25 J/cm^2 (US2003/6,569,846); read-out: dose causing 50% death rate; cited from earlier work
[10] = reference, in ethanol [38]; cited from earlier work

## Clc1cccc(Cl)c1-c1c2nc(c(-c3c(Cl)cccc3Cl)c3ccc([nH]3)c(-c3c(Cl)cccc3Cl)c3nc(c(-c4c(Cl)cccc4Cl)c4ccc1[nH]4)CC3)CC2 [Cl2PhB, 5,10,15,20-tetrakis(2,6-dichlorophenyl)bacteriochlorin]
[1]
  fluorescence quantum yield of the reference: 0.012

## Oc1cccc(-c2c3nc(c(-c4cccc(O)c4)c4ccc([nH]4)c(-c4cccc(O)c4)c4nc(c(-c5cccc(O)c5)c5ccc2[nH]5)CC4)C=C3)c1 [Foscan®, 5,10,15,20-tetrakis(3-hydroxyphenyl)chlorin]
[2]; PBS:methanol, literature [46] normalized for a laser power of 100 mW
  t1/2 (half-life): 8,582 sec

## CCCCCCCNS(=O)(=O)c1ccc(Cl)c(-c2c3nc(c(-c4c(Cl)ccc(S(=O)(=O)NCCCCCCC)c4Cl)c4ccc([nH]4)c(-c4c(Cl)ccc(S(=O)(=O)NCCCCCCC)c4Cl)c4nc(c(-c5c(Cl)ccc(S(=O)(=O)NCCCCCCC)c5Cl)c5ccc2[nH]5)CC4)CC3)c1Cl [Luzitin-Cl2Hep, 5,10,15,20-tetrakis(2,6-dichloro-3-N-heptylsulfamoylphenyl)bacteriochlorin]
[3]
  ΦF (fluorescence quantum yield): 0.0082
[4]
  τΔ (singlet oxygen lifetime): 14.3 μsec
[4]; phenalenone as reference
  ΦΔ (singlet oxygen quantum yield): 0.63
[5]
  εmax: 75,000 M^−1 cm^−1
  λmax: 746 nm
[6]
  log KOW (n-octanol:water partition coefficient): >4
[7]; methanol
  t1/2 (photobleaching half-life): 164,105 sec
[8]
  τT (air) triplet lifetime: 295 nsec

## O=S(=O)(O)c1ccc(F)c(-c2c3nc(c(-c4cc(S(=O)(=O)O)ccc4F)c4ccc([nH]4)c(-c4cc(S(=O)(=O)O)ccc4F)c4nc(c(-c5cc(S(=O)(=O)O)ccc5F)c5ccc2[nH]5)CC4)CC3)c1 [Luzitin-F, 5,10,15,20-tetrakis(2-fluoro-5-sulfonylphenyl)bacteriochlorin]
[7]; PBS
  t1/2 (photobleaching half-life): 58 s

## CN(C)S(=O)(=O)c1ccc(F)c(-c2c3nc(c(-c4cc(S(=O)(=O)N(C)C)ccc4F)c4ccc([nH]4)c(-c4cc(S(=O)(=O)N(C)C)ccc4F)c4nc(c(-c5cc(S(=O)(=O)N(C)C)ccc5F)c5ccc2[nH]5)CC4)CC3)c1 [Luzitin-FMet2, 5,10,15,20-tetrakis(2-fluoro-5-N,N-dimethysulfamoylphenyl)bacteriochlorin]
[3]
  ΦF (fluorescence quantum yield): 0.0585
[5]
  λmax: 742.5 nm
[5]; corrected for the chlorin content
  εmax: 78,000^d) M^−1 cm^−1
[6]
  log KOW (n-octanol:water partition coefficient): >4
[7]; methanol
  t1/2 (photobleaching half-life): 4,352 sec

## CC[C@H]1c2cc3[n-]c4c(c3C)C(=O)[C@H](C(=O)OC)c4c3nc(cc4[n-]c(cc(n2)[C@@H]1C)c(C(C)=O)c4C)[C@@H](C)[C@@H]3CCC(=O)O.[Pd+2] [Tookad®]
[2]; buffer
  t1/2 (half-life): 1.56 s
[9]
  IC50: 48 µM

## O=C1C=Cc2cccc3cccc1c23 [phenalenone]
[10]
  ΦΔ (singlet oxygen quantum yield): 0.95
